From PMC11435183, “Enzymatic Characterization of SpPAL Genes in S. polyrhiza and Overexpression of the SpPAL3” (Plants, 2024)

Tests used:
Format in all cases: biochemical, Spirodela polyrhiza
SpPAL2 [1] = tested on: T1, SpPAL2; experiment: Michaelis-Menten kinetics, deamination to trans-cinnamic acid; conditions: 0-20 mM L-Phe; pH and temperature of the kinetic runs not clearly stated (activity assay: 100 mM Tris-HCl pH 8.0, 50 °C)
T1 construct: full-length ORF (2277 bp); about 83 kDa; homotetramer only predicted
Description: Michaelis-Menten kinetics, deamination to trans-cinnamic acid on SpPAL2

SpPAL1 [2] = tested on: T2, SpPAL1; experiment: as above; conditions: 0-20 mM L-Phe; pH and temperature of the kinetic runs not clearly stated (activity assay: 100 mM Tris-HCl pH 8.0, 50 °C)
T2 construct: full-length ORF (2172 bp); about 78 kDa; homotetramer only predicted
Description: Michaelis-Menten kinetics, deamination to trans-cinnamic acid on SpPAL1

SpPAL3 = tested on: T3, SpPAL3; experiment: as above; conditions: 0-20 mM L-Phe; pH and temperature of the kinetic runs not clearly stated (activity assay: 100 mM Tris-HCl pH 8.0, 50 °C)
T3 construct: about 79 kDa; homotetramer only predicted
Description: Michaelis-Menten kinetics, deamination to trans-cinnamic acid on SpPAL3

SpPAL1 [3] = tested on: T2, SpPAL1; experiment: Michaelis-Menten kinetics, deamination to p-coumaric acid; conditions: 0.1-2.5 mM L-Tyr; pH and temperature of the kinetic runs not clearly stated (activity assay: 100 mM Tris-HCl pH 8.0, 50 °C)
Description: Michaelis-Menten kinetics, deamination to p-coumaric acid on SpPAL1

SpPAL2 [4] = tested on: T1, SpPAL2; experiment: as above; conditions: 0.1-2.5 mM L-Tyr; pH and temperature of the kinetic runs not clearly stated (activity assay: 100 mM Tris-HCl pH 8.0, 50 °C); Km lies above the tested concentration range
Description: Michaelis-Menten kinetics, deamination to p-coumaric acid on SpPAL2

## N[C@@H](Cc1ccccc1)C(=O)O [L-Phe]
SpPAL2 [1]
  Km: 345 µM
SpPAL1 [2]
  Km: 252 µM
SpPAL3
  Km: 632 µM

## N[C@@H](Cc1ccc(O)cc1)C(=O)O [L-Tyr]
SpPAL1 [3]
  Km: 1290 µM
SpPAL2 [4]
  Km: 8720 µM
